Assay results published in US6660501B2, “Production of proteins by cell culture” (Lonza Group, AG, priority 1986, dated 2003).

Columns and labels:
NT1/19 cells = experiment: Effect of varying alkanoates on antibody production from hybridoma cells; type: cell-based; conditions: for AVERAGE DATA FROM EXP. #1 & #2: average of relative productivity, control 100.00; for PRODUCTIVITY EXP #2: control 2.39
Method: (§1) The IgM secreting mouse hybridoma cell line NB1/19 was grown in suspension culture in Dulbeccos Modified Eagles Minimum (DMEM) serum-free medium containing albumin, insulin, transferrin, gentamycin and other additives as required to cultivate cells in suspension culture. The NB1/19 cell line produces a mouse monoclonal antibody having specificity for an antigenic determinant of human B-type blood cells. The preparation of this call line is described in detail in the specification of British Patent GB 2097425B. It will be appreciated, however, that other hybridoma cell lines may be used in place of this particular cell line as appropriate in this and other examples.
(§2) The cells were grown to a viable cell density of 1.0-1.5×10^6 cells/ml. Viable cell density was determined by counting the number of cells which exclude trypan blue, a staining agent. A sample of the suspension culture was diluted in a serum-free medium to a density of about 1.3×10^5 cells/ml. Aliquots of 50 ml in volume were dispensed into shake flasks and sodium butyrate added at concentrations of 0.1 mM, 0.3 mM, 0.5 mM and 1.0 mM.
(§3) The shake flasks were gassed with 5% CO2-95% air, and sealed and incubated with shaking at 37° C. for up to 207 hours. (Table 1). Samples ([…]) were removed from the culture by pipette. 100 μl was used to determine viable cell count and the reminder centrifuged at 300×g for five minutes. Supernatants were stored at −20° C. prior to antibody determination by enzyme linked immunosorbent assay (ELISA).
NT1/19 cells were cultured as in Example 1. Varying straight chain sodium alkanoate salts (propionate, butyrate, bentanoate or hexanoate) were added to the inoculum at the concentrations indicated in Table 5.

[1] = system: Syrian hamster cells with plasmid containing SV40 genome and HSV-TK gene; conditions: concentrations ranging from 1 mM to 5 mM; Yuan et al; cited from earlier work
[2] = system: IgM secreting mouse hybridoma cell line NB1/19; experiment: Effect of sodium butyrate on hybridoma cell growth and antibody production, serum-free medium, shake flasks (ELISA); type: cell-based
Method: as §1, §2, §3

hybridoma cell line I = experiment: Harvest antibody titre, hybridoma cell line I; type: cell-based; conditions: DMEM + 5% FCS, control 113
Method: (§4) […] Cells were cultured in either roller bottles or in shake-flasks, as in Example 1. Sodium butyrate was added to cultures immediately after inoculation.

hybridoma cell line G = experiment: Harvest antibody titre, hybridoma cell line G; type: cell-based; conditions: SFM, control 10
Method: (§5) Hybridoma cells were grown in suspension culture in either serum-free medium (see Example 1) or in DMEM supplemented with 10% (v/v), heat inactivated foetal calf serum. Cells were cultured in either roller bottles or in shake-flasks, as in Example 1. Sodium butyrate was added to cultures immediately after inoculation.

hybridoma cell line F = experiment: Harvest antibody titre, hybridoma cell line F; type: cell-based; conditions: SFM + 5% FCS, 0.50 mM butyrate, control 90
Method: as §4

[3] = system: mouse C127 cell line producing recombinant tissue plasminogen activator (tPA); experiment: Production of recombinant tPA from C127 cell line on microcarriers (fibrin-agar method; nuclei count); type: cell-based; conditions: for CONCENTRATION OF TPA PER ML: control 100
Method: A mouse C127 cell line producing recombinant tissue plasminogen activator (tPA) was cultured on microcarriers (gelibeads, K. C. Biologicals) in spinner vessels (Bellco). The growth medium was DMEM supplemented with 10% foetal calf serum. The concentration of microcarriers were 5 grams (dryweight) per liter of medium. Calls were inoculated at a density of 1×10^5 cells per ml.
After the cells had grown to confluency on the surface of the microcarriers, growth medium was aspirated and replaced with a protein-free DMEM-based maintenance medium containing the butyrate. Control cultures received no butyrate.
Cell density was determined by counting nuclei which were released from cells by hypotonic lysis (ref. Absher, in “Tissue Culture Methods and Applications”, Kruse & Patterson. Academic Press 1973). The concentration of tPA in the supernatant was assayed using the fibrin-agar method.

hybridoma cell line H = experiment: Harvest antibody titre, hybridoma cell line H; type: cell-based; conditions: SFM, 0.50 mM butyrate, control 62
Method: as §5

[4] = system: CBMG human growth hormone producing cells; experiment: Production of recombinant human growth hormone by CBMG cells (immunoradiometric assay); type: cell-based; conditions: serum-free maintenance medium, control 1.0
Method: The molecular biology of adherent CBMG human growth hormone producing cells has been described (G. N. Pavlakis et al PNAS (USA) Vol. 80 pp 397-401 (1983)).
CBMG cells were inoculated into tissue culture flasks at a density of 0.7×10^5 cells/cm^2 in Dulbeccos Modified Eagles Minimum (DMEM) supplemented with 10% foetal calf serum.
After the cells in culture had grown to confluency, the DMEM serum supplemented medium was replaced by serum-free DMEM maintenance medium. Sodium butyrate was added at 1 mM and 5 mM after transferring the cells from serum supplemented medium to maintenance medium. Levels of human growth hormone in the culture supernatant were measured after 48 hours by immunoradiometric assay.

hybridoma cell line L = experiment: Harvest antibody titre, hybridoma cell line L; type: cell-based; conditions: SFM, control 34
Method: as §5

CCCC(=O)[O-].[Na+] [sodium butyrate]
AVERAGE DATA FROM EXP. #1 & #2 (NT1/19 cells; 0.50 mM alkanoate): 204.39
PRODUCTIVITY EXP #2 (NT1/19 cells; 0.50 mM alkanoate): 4.7 ug antibody per 10^5 cells
PRODUCTIVITY EXP. #1 (NT1/19 cells; 0.50 mM alkanoate, control 3.30): 7.00 ug antibody per 10^5 cells
AVERAGE DATA FROM EXP. #1 & #2 (NT1/19 cells; 1.00 mM alkanoate): 368.20
PRODUCTIVITY EXP #2 (NT1/19 cells; 1.00 mM alkanoate): 8.80 ug antibody per 10^5 cells
expression of SV40 and HSV-TK genes compared with control values [1]: inhibited the expression of both genes
Average specific rate of antibody production ([2]; 0.1 mM sodium butyrate): 26 μg/10^6 cells/day
antibody concentration ([2]; 0.1 mM sodium butyrate, 41 hours): 34 µg/mL
antibody concentration ([2]; 0.1 mM sodium butyrate, 87 hours): 90 µg/mL
antibody concentration ([2]; 0.1 mM sodium butyrate, 137 hours): 128 µg/mL
Average specific rate of antibody production ([2]; 0.3 mM sodium butyrate): 26 μg/10^6 cells/day
antibody concentration ([2]; 0.3 mM sodium butyrate, 41 hours): 41 µg/mL
antibody concentration ([2]; 0.3 mM sodium butyrate, 87 hours): 114 µg/mL
antibody concentration ([2]; 0.3 mM sodium butyrate, 137 hours): 147 µg/mL
Average specific rate of antibody production ([2]; 0.5 mM sodium butyrate): 31 μg/10^6 cells/day
antibody concentration ([2]; 0.5 mM sodium butyrate, 41 hours): 50 µg/mL
antibody concentration ([2]; 0.5 mM sodium butyrate, 87 hours): 173 µg/mL
antibody concentration ([2]; 0.5 mM sodium butyrate, 137 hours): 173 µg/mL
Average specific rate of antibody production ([2]; 1.0 mM sodium butyrate): 52 μg/10^6 cells/day
antibody concentration ([2]; 1.0 mM sodium butyrate, 41 hours): 39 µg/mL
antibody concentration ([2]; 1.0 mM sodium butyrate, 137 hours): 180 µg/mL
antibody concentration ([2]; 1.0 mM sodium butyrate, 207 hours): 256 µg/mL
HARVEST ANTIBODY TITER (hybridoma cell line I; 0.35 mM butyrate): 135 mg/L
HARVEST ANTIBODY TITER (hybridoma cell line I; 0.50 mM butyrate): 154 mg/L
HARVEST ANTIBODY TITER (hybridoma cell line G; 0.25 mM butyrate): 11 mg/L
HARVEST ANTIBODY TITER (hybridoma cell line G; 0.50 mM butyrate): 13 mg/L
HARVEST ANTIBODY TITER (hybridoma cell line F): 132 mg/L
CELL DENSITY ([3]; 0.5 mM butyrate, maintenance period 46 hours, control 10.8): 11.1 x10^5 cells/ml
CONCENTRATION OF TPA PER ML ([3]; 0.5 mM butyrate, maintenance period 46 hours): 159 arbitrary units
CELL DENSITY ([3]; 0.5 mM butyrate, maintenance period 92 hours, control 13.7): 10.3 x10^5 cells/ml
CONCENTRATION OF TPA PER ML ([3]; 0.5 mM butyrate, maintenance period 92 hours): 143 arbitrary units
CELL DENSITY ([3]; 0.5 mM butyrate, maintenance period 140 hours, control 19.1): 12.3 x10^5 cells/ml
CONCENTRATION OF TPA PER ML ([3]; 0.5 mM butyrate, maintenance period 140 hours): 186 arbitrary units
CELL DENSITY ([3]; 1.0 mM butyrate, maintenance period 46 hours, control 10.8): 11.5 x10^5 cells/ml
CONCENTRATION OF TPA PER ML ([3]; 1.0 mM butyrate, maintenance period 46 hours): 191 arbitrary units
CELL DENSITY ([3]; 1.0 mM butyrate, maintenance period 92 hours, control 13.7): 9.2 x10^5 cells/ml
CONCENTRATION OF TPA PER ML ([3]; 1.0 mM butyrate, maintenance period 92 hours): 157 arbitrary units
CELL DENSITY ([3]; 1.0 mM butyrate, maintenance period 140 hours, control 19.1): 9.4 x10^5 cells/ml
CONCENTRATION OF TPA PER ML ([3]; 1.0 mM butyrate, maintenance period 140 hours): 236 arbitrary units
CELL DENSITY ([3]; 2.5 mM butyrate, maintenance period 46 hours, control 10.8): 9.6 x10^5 cells/ml
CONCENTRATION OF TPA PER ML ([3]; 2.5 mM butyrate, maintenance period 46 hours): 945 arbitrary units
CELL DENSITY ([3]; 2.5 mM butyrate, maintenance period 92 hours, control 13.7): 7.6 x10^5 cells/ml
CONCENTRATION OF TPA PER ML ([3]; 2.5 mM butyrate, maintenance period 92 hours): 1782 arbitrary units
CELL DENSITY ([3]; 2.5 mM butyrate, maintenance period 140 hours, control 19.1): 6.6 x10^5 cells/ml
CONCENTRATION OF TPA PER ML ([3]; 2.5 mM butyrate, maintenance period 140 hours): 3468 arbitrary units
HARVEST ANTIBODY TITER (hybridoma cell line H): 109 mg/L
Concentration of hGH in supernatant ([4]; 1 mM sodium butyrate): 1.1 arbitrary units/48 hours
Concentration of hGH in supernatant ([4]; 5 mM sodium butyrate): 2.3 arbitrary units/48 hours
HARVEST ANTIBODY TITER (hybridoma cell line L; 0.25 mM butyrate): 50 mg/L
HARVEST ANTIBODY TITER (hybridoma cell line L; 0.50 mM butyrate): 58 mg/L
